Assay results reported in patent publication US6818782B2, “Enantiomeric compounds for treatment of cardiac arrhythmias and methods of use” (ARYX Therapeutics, priority 1999, dated 2004).

Tests used:
[1] = test system: rats challenged by an arrhythmogenic combination of benzene vapors and adrenaline; assay: Anti-arrhythmic activity in anesthetized rats (benzene/adrenaline challenge: VPB and tachycardia); type: in vivo, rat; conditions: for Protection against adrenaline-induced tachycardia (heart rate), potency and duration: administered from time 0 to time 120 minutes; for Heart rate (beats/minute) / Inhibition of tachycardia / Number of VPB / Inhibition of VPB: isolated enantiomer compared to respective racemate; for Inhibition of VPB: 4 mg/kg i.v. then 12 mg/kg/h for 2 hours; for Anti-VPB activity at the end of the washout period: time 180 min; for Inhibition of formation of ventricular premature beats during drug administration: whole period of drug administration (time 0 to 120 min), 4 mg/kg i.v. then 12 mg/kg/h
Protocol: (§1) Anti-Arrhythmic Activity in Anesthetized Rats
(§2) Male Sprague-Dawley rats with body weights of 410±30 g (Harlan Sprague Dawley Inc., Indianapolis, Ind.), were anesthetized with sodium pentobarbital (50 mg/kg i.p.—Butler Co., Columbus, Ohio). The skin from the neck area was removed and the jugular veins on both sides were cleared of connective tissue. Both jugular veins and the left carotid artery were isolated, and the latter tied up cranially with a surgical silk (ETHICON 4-0, Ethicon Inc., Australia). A plastic catheter ([…] 19ga, Vecton Dickinson, Sandy, Utah), filled with a solution containing 10% sodium heparin (Elkins-Sinn Inc., Cherry Hill, N.J.) in normal saline (100 U/ml sodium heparin), was introduced into the artery and fixed with surgical silk.
(§3) The catheter was connected to a pressure transducer (OHMEDA P23-XL, Ohmeda Medical Devices Division Inc., Madison, Wis.), filled with the same heparinized 0.9% NaCl solution, to register beat-to-beat arterial pressure. Needle electrodes were inserted s.c., and together with the pressure transducer, were joined to a GOULD TA 2000 recorder. Leads II, aVF and intraarterial blood pressure were monitored simultaneously throughout the experiments and recorded at certain intervals at 50 and 200 mm/sec paper speed.
(§4) The surgery was completed with an incision on the trachea where a short plastic tubing was placed and the animal was connected to a rodent-model ventilator (HARVARD Model 683, Harvard Apparatus, Inc., Holliston, Mass.). The animals were ventilated in a controlled way, depending on their spontaneous breathing frequency (55-75/min).
(§5) Drug administrations were carried out through i.v. catheters (TERUMO 24 GA*¾″, Terumo Medical Corp., Elkton, Md.) inserted into both jugular veins. The left side was used for drug infusions by means of a syringe pump (SAGE INSTRUMENTS, Model 341B, Orion Res. Inc., Boston, Mass.), and the right side was used for adrenaline injections. The experiments were started after at least 15 minutes of stabilization. Benzene/adrenaline challenges were performed as follows: the respirator inlet was connected to a 50-ml bubbler half-full with benzene (Fisher Scientific, Fair Lawn, N.J.) so that the inspired air was saturated with benzene vapor. The animal was ventilated with benzene vapor for two minutes. The tidal volume was typically 1 ml/100 g of animal. During the last 30 seconds of benzene ventilation, 10 μg/kg adrenaline solution (in 0.9% NaCl) was injected into the right jugular vein. […] These arrhythmias could be elicited repeatedly. After three control VTs (at −30, −20 and −10 minutes), the test compounds were injected slowly during 30 seconds at a dose of 4 mg/kg i.v., immediately followed by a slow infusion of 12 mg/kg/h for 2 hours. The flow rate during the infusion period was 1 ml/h.
(§6) There were 5 rats per test compound and each animal served as its own control. The ability of the different drugs to suppress arrhythmias was tested against repeated benzene/adrenaline challenges at 5, 15, 30, 45, 60, 90, 120 (end of drug infusion), 135, 150, 165 and 180 minutes after the i.v. bolus injection. The amplitudes of the systolic arterial pressure and diastolic arterial pressure […] with the help of a pressure-amplitude calibration curve. Heart rate, number of ventricular complexes during the occurrence of VTs and VPBs, and certain ECG parameters (PR, QRS, QT durations and RR cycle lengths in msec) were also recorded and measured manually. At each time-point, 3-5 cycles were measured and the average values were entered into EXCEL Windows 97. The average and standard deviation for the five experimental animals per compound were calculated.

anesthetized rats = assay: EKG parameters (QT, QRS, PR) in anesthetized rats; type: in vivo, rat; conditions: for PR interval / QRS interval / QT interval: isolated enantiomer compared to respective racemate
Protocol: as §1, §2, §3, §4, §5, §6

Structure (SMILES)	Protection against adrenaline-induced tachycardia (heart rate), potency and duration [1]	Heart rate (beats/minute) ([1]; anesthetized rats)	Inhibition of tachycardia ([1]; anesthetized rats)	Number of VPB ([1]; anesthetized rats)	Inhibition of VPB ([1]; anesthetized rats)	Anti-VPB activity at the end of the washout period [1]	PR interval (anesthetized rats)	QRS interval (anesthetized rats)	QT interval (anesthetized rats)	Inhibition of formation of ventricular premature beats during drug administration [1]	Anti-VPB activity relative to the other forms ([1]; racemate vs enantiomers, anesthetized rats)	Effect on PR segment of EKG (Class-IV activity), potency (anesthetized rats)	Effect on QT segment of EKG (Class-III properties), potency and duration (anesthetized rats)	Time at which anti-VPB activity is lost ([1]; infusion time 0 to 120 min) [min]
CC[C@H](C)OC(=O)Cc1oc2ccccc2c1C(=O)c1cc(I)c(OCCN(CC)CC)c(I)c1 [ATI-2042]	very good protection against this tachyarrhythmia													
CC[C@@H](C)OC(=O)Cc1oc2ccccc2c1C(=O)c1cc(I)c(OCCN(CC)CC)c(I)c1 [Compound R-2042, (R)-sec-Butyl 2-[3-(3,5-diiodo-4-(2-diethylaminoethyloxy)benzoyl)]benzofuraneacetate]		lower	longer	lower	longer	completely inactive	shorter	no change	no change					
CCN(CC)CCOc1c(I)cc(C(=O)c2c(CC(=O)O[C@H](C)C(C)C)oc3ccccc23)cc1I [Compound R-2055, (R)-(3-Methyl)-2butyl2-[3-(3,5-diiodo-4-(2-diethylaminoethyloxy)benzoyl)]benzofuraneacetate]	longer-lasting effect than S-2055	lower	longer	lower	longer	still retained part of its activity	shorter	longer	no change	totally inhibited the formation of ventricular premature beats				
CC[C@H](C)OC(=O)Cc1oc2ccccc2c1C(=O)c1cc(I)c(OCCN(CC)CC)c(I)c1 [R,S-2042]	the least potent and shortest acting										even less active than either the R- or the S-isomer			
CC[C@H](C)OC(=O)Cc1oc2ccccc2c1C(=O)c1cc(I)c(OCCN(CC)CC)c(I)c1 [Compound S-2042, (S)-sec-Butyl 2-[3-(3,5-diiodo-4-(2-diethylaminoethyloxy)benzoyl)]benzofurane-acetate]	more potent and longer acting then R-2042	lower	longer	lower	longer	still retained part of its activity	longer	longer	longer	totally inhibited the formation of ventricular premature beats		much more potent than R-2042 and the racemate R,S-2042	the most potent and the longest acting	
CCN(CC)CCOc1c(I)cc(C(=O)c2c(CC(=O)O[C@@H](C)C(C)C)oc3ccccc23)cc1I [Compound S-2055, (S)-(3-Methyl)-2butyl2-[3-(3,5-diiodo-4-(2-diethylaminoethyloxy)benzoyl)]benzofuraneacetate]		lower	longer	lower	longer	completely inactive	shorter	longer	no change					~40
CCN(CC)CCOc1c(I)cc(C(=O)c2c(CC(=O)OC(C)C(C)C)oc3ccccc23)cc1I (stereo not shown) [ATI-2055]	inhibits the tachycardia													
